Measurements as given in patent US5008267A, “Pyrimidinedione compounds, method of producing the same and antiarrythmic agents containing the same” (Mitsui Toatsu Chemicals, Incorporated, priority 1988, dated 1991).
Where a name gives a salt, the structure may show the parent alone.

Key:
[1] = Toxicity test, mortality rate 24 hours after administration; settings: mouse, in vivo
Method: Each of the compounds prepared in the above-mentioned examples was administered into a mouse (ddY strain, male). In each case, oral administration (p.o.) and intra peritoneal administration (i.p.) were separately carried out in a dose of 300 mg/kg and 250 mg/kg, respectively.
A mortality rate (number of specimens: one group=2 to 4 mice) of the mice 24 hours after the administration was calculated, and the results are set forth in Table 3.
Following the same procedure as in Toxicity Test 1, toxicity of the respective compounds prepared in the above examples in Table 5 was tested to calculate a mortality rate of mice.
Administration was made by oral administration (p.o.) in an amount of 300 mg/kg of each compound for one mouse.
Following the same procedure as in Toxicity Test 1, toxicity of the respective compounds prepared in the above examples in Table 7 was tested to calculate a mortality rate of mice.

[2] = test system: ventricular muscle refractory period; assay: Influence on ventricular muscle refractory period (ERP); format: in vivo, mongrel dog; settings: Canis lupus familiaris, iv, i.v., (W-Y)/Y×100, read-out: ERP (%; extensibility of refractory period)
How it was run: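 Anesthetized (pentobarbital 30 mg/kg i.v.) mongrel dog, compound given i.v. or intraduodenally; right ventricle paced via bipolar electrodes at 400 msec, 4 msec pulses, twice threshold, sinus pacemaker abolished with alcohol. Refractory period taken as shortest inter-train interval (10 msec steps) losing response; ERP (%) = (after − before)/before × 100.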

[3] = test system: Purkinje fiber of the right ventricular free wall (myocardial action potential); assay: Influence on myocardial action potential duration time (APD75), isolated right ventricular free wall, microelectrode in Purkinje fiber; format: cell-based, dog; settings: Canis lupus familiaris, 20 min, 20 minutes' incubation, (B-A)/A×100, read-out: APD75 (%); for activation at 1 µg/mL: 1.0 μg/ml; for activation at 3 µg/mL: 3.0 μg/ml; for activation at 10 µg/mL: 10.0 μg/ml

| Structure (SMILES) | mortality at 24 h ([1]; po, 300 mg/kg (p.o.)) [%] | change in vivo at 0.1 mg/kg [2] [%] | change in vivo at 0.3 mg/kg [2] [%] | change in vivo at 1 mg/kg [2] [%] | change in vivo at 3 mg/kg [2] [%] | activation at 1 µg/mL [3] [%] | activation at 3 µg/mL [3] [%] | activation at 10 µg/mL [3] [%] | mortality at 24 h ([1]; ip, 250 mg/kg (i.p.)) [%] |
| --- | --- | --- | --- | --- | --- | --- | --- | --- | --- |
| C=CCOc1cc([N+](=O)[O-])ccc1OCCCN1CCN(c2cc(=O)n(C)c(=O)n2C)CC1 [Compound 161, 1,3-dimethyl-6-{4-[3-(2-allyloxy-4-nitrophenyloxy)propyl]piperazin-1-yl}-2,4(1H,3H)-pyrimidinedione hydrochloride] | 0 | 0 | 6.7 | 6.7 | 6.7 | 26 | 39 | – | – |
| Cn1c(N2CCN(CCc3ccccc3[N+](=O)[O-])CC2)cc(=O)n(C)c1=O [Compound 10, 1,3-dimethyl-6-{4-[2-(2-nitrophenyl)ethyl]piperazin-1yl}-2,4(1H,3H)-pyrimidinedione oxalate] | 0 | 6.7 | 6.7 | 13.3 | 20 | – | 2 | 11 | – |
| COC(=O)CN(CCCNc1ccc([N+](=O)[O-])cc1)CCNc1cc(=O)n(C)c(=O)n1C [Compound 166, 1,3-dimethyl-6-{2-[N-methoxycarbonylmethyl-3-(4-nitroanilino)propylamino]ethylamino}-2,4(1H,3H)-pyrimidinedione hydrochloride] | 0 | 6.7 | 6.7 | 6.7 | 6.7 | 8 | 18 | – | – |
| CCN(CCCc1ccc([N+](=O)[O-])cc1)CCNc1cc(=O)n(C)c(=O)n1C [Compound 4, 1,3-dimethyl-6-{2-<N-ethyl-N-[3-(4-nitrophenyl)propyl]amino>ethylamino}-2,4(1H,3H)-pyrimidinedione hydrochloride] | 0 | 5.6 | 11.1 | 16.7 | 16.7 | 11 | 16 | – | 0 |
| Cn1c(N2CCN(CCCOc3ccc([N+](=O)[O-])cc3C(=O)c3ccccc3)CC2)cc(=O)n(C)c1=O [Compound 80, 1,3-dimethyl-6-{4-[3-(2-benzoyl-4-nitrophenoxy)propyl]piperazin-1-yl}-2,4(1H,3H)-pyrimidinedione oxalate] | 0 | 2.6 | 9.7 | 21.9 | – | 19 | 30 | 34 | – |
| CCN(CCNCCCCc1ccc([N+](=O)[O-])cc1)c1cc(=O)n(C)c(=O)n1C [Compound 26, 1,3-dimethyl-6-{N-ethyl-N-<2-[4-(4-nitrophenyl)butylamino]ethyl>amino}-2,4(1H,3H)-pyrimidinedione oxalate] | 0 | 6.5 | 6.5 | 6.5 | 6.5 | 20 | 30 | 35 | 50 |
| Cn1c(N2CCN(CCCOc3cc([N+](=O)[O-])ccc3O)CC2)cc(=O)n(C)c1=O [Compound 145, 1,3-dimethyl-6-{4-[3-(2-hydroxy-5-nitrophenyloxy)propyl]piperazin-1-yl}-2,4(1H,3H)-pyrimidinedione hydrochloride] | 0 | 0 | 6.7 | 6.7 | 20 | 7 | 16 | 23 | – |
